This assay is filed under the species Homo sapiens. Nature of the assay: Inhibition of HA-tagged YAP/Gal4-tagged TEAD (unknown origin) interaction at 2.5 uM by Coimmunoprecipitation assay.

The record followed here is ChEMBL document CHEMBL3580621, “The Hippo Pathway and YAP/TAZ-TEAD Protein-Protein Interaction as Targets for Regenerative Medicine and Cancer Treatment” (J Med Chem, 2015).

VERTEPORFIN: the inhibition was > 50%.
